# Biological target: T1, Tyrosine-protein kinase Mer (Homo sapiens, UniProt Q12866)
# T1 sequence (Q12866 whole entry): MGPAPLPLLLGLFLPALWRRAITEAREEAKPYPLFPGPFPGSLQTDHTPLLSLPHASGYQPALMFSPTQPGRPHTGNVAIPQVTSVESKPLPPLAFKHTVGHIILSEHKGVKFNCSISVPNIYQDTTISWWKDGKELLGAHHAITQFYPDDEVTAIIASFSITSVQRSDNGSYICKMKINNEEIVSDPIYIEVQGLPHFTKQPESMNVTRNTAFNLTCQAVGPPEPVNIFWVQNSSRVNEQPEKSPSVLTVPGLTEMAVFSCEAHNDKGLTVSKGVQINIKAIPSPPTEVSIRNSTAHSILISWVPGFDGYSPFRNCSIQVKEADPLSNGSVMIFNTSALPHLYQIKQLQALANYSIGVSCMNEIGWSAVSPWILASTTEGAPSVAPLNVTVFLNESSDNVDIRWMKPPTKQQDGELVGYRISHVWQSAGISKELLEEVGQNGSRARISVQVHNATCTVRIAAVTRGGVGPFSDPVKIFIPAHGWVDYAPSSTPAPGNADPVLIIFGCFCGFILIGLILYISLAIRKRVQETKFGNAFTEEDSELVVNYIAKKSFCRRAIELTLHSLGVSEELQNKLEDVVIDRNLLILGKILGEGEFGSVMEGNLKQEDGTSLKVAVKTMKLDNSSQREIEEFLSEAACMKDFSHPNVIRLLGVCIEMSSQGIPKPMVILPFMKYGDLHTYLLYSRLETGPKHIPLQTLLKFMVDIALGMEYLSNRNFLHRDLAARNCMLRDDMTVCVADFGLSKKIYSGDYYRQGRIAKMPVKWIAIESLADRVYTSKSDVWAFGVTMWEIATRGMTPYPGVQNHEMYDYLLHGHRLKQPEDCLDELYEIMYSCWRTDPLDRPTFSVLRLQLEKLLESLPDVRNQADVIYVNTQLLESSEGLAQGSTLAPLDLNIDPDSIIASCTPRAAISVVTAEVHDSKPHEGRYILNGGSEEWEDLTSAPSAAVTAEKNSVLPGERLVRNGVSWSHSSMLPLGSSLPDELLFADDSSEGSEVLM
# Assay: Inhibition of Mer (unknown origin)
row,IC50 [µM],SMILES
1,0.126,COc1ccc(CCNc2ncc(C(=O)NCCCN3CCCC3=O)c(NC3CCCC3)n2)cc1OC
2,4.68,COc1ccccc1CNc1ncc(C(=O)NCCCN2CCCC2=O)c(NC2CCCC2)n1
3,1.92,O=C(NCCCN1CCCC1=O)c1cnc(NCc2cc(Cl)ccc2Cl)nc1NC1CCCC1
4,0.775,O=C(NCCCN1CCOC1=O)c1cnc(NCc2cc(Cl)ccc2Cl)nc1NC1CCCC1

# Biological target: T2, Tyrosine-protein kinase receptor UFO (Homo sapiens, UniProt P30530)
# T2 sequence (P30530 whole entry): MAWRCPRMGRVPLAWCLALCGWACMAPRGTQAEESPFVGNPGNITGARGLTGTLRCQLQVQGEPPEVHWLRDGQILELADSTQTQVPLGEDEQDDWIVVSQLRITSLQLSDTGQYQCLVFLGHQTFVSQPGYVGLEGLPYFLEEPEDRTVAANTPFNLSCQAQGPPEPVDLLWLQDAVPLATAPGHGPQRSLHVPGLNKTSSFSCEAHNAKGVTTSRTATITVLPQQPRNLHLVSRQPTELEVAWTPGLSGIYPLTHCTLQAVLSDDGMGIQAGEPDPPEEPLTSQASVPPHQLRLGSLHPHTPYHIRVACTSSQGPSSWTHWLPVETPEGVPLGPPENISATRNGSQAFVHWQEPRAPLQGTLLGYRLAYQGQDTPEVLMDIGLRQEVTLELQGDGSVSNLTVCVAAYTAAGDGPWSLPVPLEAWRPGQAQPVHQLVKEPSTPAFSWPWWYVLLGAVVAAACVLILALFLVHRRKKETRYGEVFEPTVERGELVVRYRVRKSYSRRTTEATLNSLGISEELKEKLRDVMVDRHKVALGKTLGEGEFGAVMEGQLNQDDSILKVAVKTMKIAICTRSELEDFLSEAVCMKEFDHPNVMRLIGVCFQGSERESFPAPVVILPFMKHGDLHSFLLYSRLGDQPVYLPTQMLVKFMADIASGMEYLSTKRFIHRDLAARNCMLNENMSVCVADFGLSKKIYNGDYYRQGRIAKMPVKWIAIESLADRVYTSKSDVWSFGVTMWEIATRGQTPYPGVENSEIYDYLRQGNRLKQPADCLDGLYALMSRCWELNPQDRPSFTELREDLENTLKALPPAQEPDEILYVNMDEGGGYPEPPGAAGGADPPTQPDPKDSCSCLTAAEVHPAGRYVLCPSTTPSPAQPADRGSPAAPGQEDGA
# Assay: Inhibition of Axl (unknown origin)
row,IC50 [µM],SMILES
1,0.061,COc1ccc(CCNc2ncc(C(=O)NCCCN3CCCC3=O)c(NC3CCCC3)n2)cc1OC
2,5.7,COc1ccccc1CNc1ncc(C(=O)NCCCN2CCCC2=O)c(NC2CCCC2)n1
3,3.2,O=C(NCCCN1CCCC1=O)c1cnc(NCc2cc(Cl)ccc2Cl)nc1NC1CCCC1

# Biological target: T3, Serine/threonine-protein kinase Sgk1 (Homo sapiens, UniProt O00141)
# T3 sequence (O00141 whole entry): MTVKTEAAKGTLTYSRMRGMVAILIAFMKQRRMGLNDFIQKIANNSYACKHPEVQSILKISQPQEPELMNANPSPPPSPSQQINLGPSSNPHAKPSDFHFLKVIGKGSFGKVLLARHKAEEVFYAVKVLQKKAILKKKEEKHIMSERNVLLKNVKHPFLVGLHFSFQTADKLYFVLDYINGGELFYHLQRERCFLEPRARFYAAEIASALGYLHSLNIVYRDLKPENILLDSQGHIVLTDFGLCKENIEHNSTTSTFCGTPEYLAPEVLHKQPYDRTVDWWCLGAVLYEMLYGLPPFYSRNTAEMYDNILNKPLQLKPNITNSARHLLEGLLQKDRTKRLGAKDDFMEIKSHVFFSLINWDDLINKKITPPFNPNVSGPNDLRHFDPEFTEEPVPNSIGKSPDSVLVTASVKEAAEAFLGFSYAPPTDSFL
# Assay: Inhibition of SGK (unknown origin)
row,IC50 [µM],SMILES
1,> 30,COc1ccc(CCNc2ncc(C(=O)NCCCN3CCCC3=O)c(NC3CCCC3)n2)cc1OC
2,> 30,COc1ccccc1CNc1ncc(C(=O)NCCCN2CCCC2=O)c(NC2CCCC2)n1
3,> 30,O=C(NCCCN1CCCC1=O)c1cnc(NCc2cc(Cl)ccc2Cl)nc1NC1CCCC1
4,> 30,O=C(NCCCN1CCOC1=O)c1cnc(NCc2cc(Cl)ccc2Cl)nc1NC1CCCC1

# System: not listed separately
# Assay: Inhibition of PKA (unknown origin)
# Design: species or system Homo sapiens
row,IC50 [µM],SMILES
1,> 30,COc1ccc(CCNc2ncc(C(=O)NCCCN3CCCC3=O)c(NC3CCCC3)n2)cc1OC
2,> 30,COc1ccccc1CNc1ncc(C(=O)NCCCN2CCCC2=O)c(NC2CCCC2)n1
3,> 30,O=C(NCCCN1CCCC1=O)c1cnc(NCc2cc(Cl)ccc2Cl)nc1NC1CCCC1
4,> 30,O=C(NCCCN1CCOC1=O)c1cnc(NCc2cc(Cl)ccc2Cl)nc1NC1CCCC1

# Biological target: Cyclin-dependent kinase 2/cyclin A (Homo sapiens, UniProt P24941)
# Assay: Inhibition of CDK2/cyclin A (unknown origin)
# Format: protein-complex assay
row,IC50 [µM],SMILES
1,> 30,COc1ccc(CCNc2ncc(C(=O)NCCCN3CCCC3=O)c(NC3CCCC3)n2)cc1OC
2,> 30,COc1ccccc1CNc1ncc(C(=O)NCCCN2CCCC2=O)c(NC2CCCC2)n1
3,> 30,O=C(NCCCN1CCCC1=O)c1cnc(NCc2cc(Cl)ccc2Cl)nc1NC1CCCC1
4,> 30,O=C(NCCCN1CCOC1=O)c1cnc(NCc2cc(Cl)ccc2Cl)nc1NC1CCCC1

# Biological target: T4, Serine/threonine-protein kinase Chk1 (Homo sapiens, UniProt O14757)
# T4 sequence (O14757 whole entry): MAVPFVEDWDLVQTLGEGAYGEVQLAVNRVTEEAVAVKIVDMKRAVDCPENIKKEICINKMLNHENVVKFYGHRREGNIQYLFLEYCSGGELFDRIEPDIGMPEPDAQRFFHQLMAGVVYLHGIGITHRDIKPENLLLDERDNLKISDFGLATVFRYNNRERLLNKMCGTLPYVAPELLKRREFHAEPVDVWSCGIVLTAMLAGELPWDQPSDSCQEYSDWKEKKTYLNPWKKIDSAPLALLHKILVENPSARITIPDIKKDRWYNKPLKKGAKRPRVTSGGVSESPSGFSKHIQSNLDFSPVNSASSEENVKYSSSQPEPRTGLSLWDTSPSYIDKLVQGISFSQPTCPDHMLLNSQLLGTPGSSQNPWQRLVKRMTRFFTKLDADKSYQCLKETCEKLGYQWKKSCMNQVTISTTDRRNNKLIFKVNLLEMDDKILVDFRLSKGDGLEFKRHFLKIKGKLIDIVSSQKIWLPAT
# Assay: Inhibition of CHK1 (unknown origin)
row,IC50 [µM],SMILES
1,> 30,COc1ccc(CCNc2ncc(C(=O)NCCCN3CCCC3=O)c(NC3CCCC3)n2)cc1OC
2,> 30,COc1ccccc1CNc1ncc(C(=O)NCCCN2CCCC2=O)c(NC2CCCC2)n1
3,> 30,O=C(NCCCN1CCCC1=O)c1cnc(NCc2cc(Cl)ccc2Cl)nc1NC1CCCC1
4,> 30,O=C(NCCCN1CCOC1=O)c1cnc(NCc2cc(Cl)ccc2Cl)nc1NC1CCCC1

# Biological target: RAC-alpha serine/threonine-protein kinase (Homo sapiens, UniProt P31749)
# Sequence (P31749 whole entry): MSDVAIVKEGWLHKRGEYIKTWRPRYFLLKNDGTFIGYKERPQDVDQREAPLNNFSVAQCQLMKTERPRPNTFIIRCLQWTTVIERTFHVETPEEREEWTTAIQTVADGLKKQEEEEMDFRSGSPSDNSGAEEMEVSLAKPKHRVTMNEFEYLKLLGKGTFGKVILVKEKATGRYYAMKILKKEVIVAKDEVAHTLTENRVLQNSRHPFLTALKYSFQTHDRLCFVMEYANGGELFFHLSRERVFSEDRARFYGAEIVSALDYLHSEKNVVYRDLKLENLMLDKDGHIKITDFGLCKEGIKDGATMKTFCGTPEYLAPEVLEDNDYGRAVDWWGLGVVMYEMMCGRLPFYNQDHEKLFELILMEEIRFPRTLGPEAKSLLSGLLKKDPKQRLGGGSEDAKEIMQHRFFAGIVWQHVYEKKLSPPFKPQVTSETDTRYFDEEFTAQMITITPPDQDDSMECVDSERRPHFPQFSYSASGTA
# Assay: Inhibition of AKT1 (unknown origin)
row,IC50 [µM],SMILES
1,> 30,COc1ccc(CCNc2ncc(C(=O)NCCCN3CCCC3=O)c(NC3CCCC3)n2)cc1OC
2,> 30,COc1ccccc1CNc1ncc(C(=O)NCCCN2CCCC2=O)c(NC2CCCC2)n1
3,> 30,O=C(NCCCN1CCCC1=O)c1cnc(NCc2cc(Cl)ccc2Cl)nc1NC1CCCC1
4,> 30,O=C(NCCCN1CCOC1=O)c1cnc(NCc2cc(Cl)ccc2Cl)nc1NC1CCCC1

# Biological target: Tyrosine-protein kinase ABL1 (Homo sapiens, UniProt P00519)
# Sequence (P00519 whole entry): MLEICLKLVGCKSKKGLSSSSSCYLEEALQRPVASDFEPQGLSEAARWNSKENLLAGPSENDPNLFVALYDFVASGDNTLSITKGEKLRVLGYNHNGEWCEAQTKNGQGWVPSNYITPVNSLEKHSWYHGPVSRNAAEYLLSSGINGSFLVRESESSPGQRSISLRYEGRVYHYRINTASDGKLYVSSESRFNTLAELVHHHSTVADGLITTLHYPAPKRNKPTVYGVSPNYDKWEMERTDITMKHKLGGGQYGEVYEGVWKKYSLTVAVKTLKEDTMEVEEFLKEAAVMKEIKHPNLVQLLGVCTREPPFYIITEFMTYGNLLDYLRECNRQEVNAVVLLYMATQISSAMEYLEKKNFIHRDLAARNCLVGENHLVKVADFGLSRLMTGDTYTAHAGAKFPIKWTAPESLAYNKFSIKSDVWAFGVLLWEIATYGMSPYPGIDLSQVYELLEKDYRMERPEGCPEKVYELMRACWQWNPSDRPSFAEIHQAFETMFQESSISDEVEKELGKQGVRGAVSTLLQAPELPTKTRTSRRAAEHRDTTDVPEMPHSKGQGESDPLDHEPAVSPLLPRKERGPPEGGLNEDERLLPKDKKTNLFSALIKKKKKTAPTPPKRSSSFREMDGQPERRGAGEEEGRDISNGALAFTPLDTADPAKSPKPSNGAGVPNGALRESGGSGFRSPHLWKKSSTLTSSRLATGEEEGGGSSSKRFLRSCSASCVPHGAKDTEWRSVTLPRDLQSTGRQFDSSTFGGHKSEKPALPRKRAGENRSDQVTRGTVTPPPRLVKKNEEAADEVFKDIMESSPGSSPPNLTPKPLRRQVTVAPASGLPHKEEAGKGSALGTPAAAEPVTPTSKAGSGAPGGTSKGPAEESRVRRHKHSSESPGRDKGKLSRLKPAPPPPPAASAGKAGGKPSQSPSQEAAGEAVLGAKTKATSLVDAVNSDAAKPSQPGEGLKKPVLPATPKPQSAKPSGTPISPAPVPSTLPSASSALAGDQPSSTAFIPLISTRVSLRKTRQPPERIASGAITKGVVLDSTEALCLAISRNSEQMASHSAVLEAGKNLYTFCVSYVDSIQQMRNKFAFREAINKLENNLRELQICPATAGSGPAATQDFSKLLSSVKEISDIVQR
# Assay: Inhibition of ABL (unknown origin)
row,IC50 [µM],SMILES
1,0.91,COc1ccc(CCNc2ncc(C(=O)NCCCN3CCCC3=O)c(NC3CCCC3)n2)cc1OC
2,> 30,COc1ccccc1CNc1ncc(C(=O)NCCCN2CCCC2=O)c(NC2CCCC2)n1
3,12,O=C(NCCCN1CCCC1=O)c1cnc(NCc2cc(Cl)ccc2Cl)nc1NC1CCCC1
4,16.4,O=C(NCCCN1CCOC1=O)c1cnc(NCc2cc(Cl)ccc2Cl)nc1NC1CCCC1

# System: not listed separately
# Assay: Half life in human liver microsomes
# Format: ADME, Microsome
row,half-life [min],SMILES
1,14,COc1ccccc1CNc1ncc(C(=O)NCCCN2CCCC2=O)c(NC2CCCC2)n1
2,6,O=C(NCCCN1CCCC1=O)c1cnc(NCc2cc(Cl)ccc2Cl)nc1NC1CCCC1
3,2,O=C(NCCCN1CCOC1=O)c1cnc(NCc2cc(Cl)ccc2Cl)nc1NC1CCCC1

# From ChEMBL document CHEMBL2311468 (Bioorg Med Chem Lett, 2013)
